Experimental data: patent publication US20120225862A1, “HETEROARYL BENZAMIDES, COMPOSITIONS AND METHODS OF USE” (AUCKLAND UNIVSERVICES LIMITED, priority 2009, published 2012)

Experiments:
[1] = test system: RCC4/VHL; assay: XTT IC50 assay, selectivity RCC4 versus RCC4 with VHL-reintroduced; assay type: cell-based, human; conditions: selectivity ratio of XTT IC50 values, RCC4 vs RCC4/VHL
Procedure: (§1) RCC4 parental and RCC4 with VHL-reintroduced (RCC4/VHL), SN12C and SN12C-CSCG-VHL shRNA were maintained in DMEM supplemented with 10% FCS.
(§2) IC50 values for compounds were determined by XTT assay. For 2,3-bis[2-methoxy-4-nitro-5-sulfophenyl]-2H-tetrazolium-5-carboxanilide inner salt (XTT) assays, five thousand cells were plated in 96-well plates. The next day, vehicle or drug was added to each well and incubated for four days. Media was aspirated and phenol red-free medium with 0.3 mg/mL XTT and 2.65 ug/mL N-methyl dibenzopyrazine methyl sulfate was added. This was incubated at 37° C. for 1-2 hours and absorbance was read at 450 nm. IC50 values for each compound were calculated using linear interpolation.
(§3) For 2,3-bis[2-methoxy-4-nitro-5-sulfophenyl]-2H-tetrazolium-5-carboxanilide (XTT) assays, five thousand cells were plated in 96-well plates. The next day, vehicle (DMSO) or drug was added by serial dilution. Four days later, media were aspirated, XTT solution (0.3 mg/ml of XTT (Sigma), 2.65 mg/ml N-methyl dibenxopyrazine methyl sulfate (Simga) in phenol red-free media) was added, and the plates were incubated at 37° C. for 1-2 hours. Metabolism of XTT was quantified by measuring the absorbance at 450 nm. IC50s were calculated using linear interpolation. For clonogenic survival assays, three hundred cells were plated per 60 mm tissue culture dish. The cells were allowed to attach overnight and then treated with vehicle or drug for 14 days. Colonies were fixed and stained with crystal violet (0.1% crystal violet in 95% ethanol). All conditions were measured in triplicate and each experiment was done in duplicate or triplicate. To determine necrosis, cells were treated with drug for a given time point. Media and cells were collected, centrifugated, and resuspended in 0.4% trypan blue (Invitrogen). Live and dead cells were counted on a hematocytometer.

[2] = test system: RCC4; assay: XTT IC50 / viability assay, RCC4 cells; assay type: cell-based, human; conditions: Homo sapiens, RCC4, 96 h; XTT assay, four days
Procedure: as §1, §2, §3

| Structure (SMILES) | Ratio (RCC4:RCC/VHL) [1] | IC50 [2] [nM] |
| --- | --- | --- |
| O=C(Nc1cccnc1)c1ccc(CNS(=O)(=O)c2ccc(CCCN3CCOCC3)cc2)cc1 [Example 141, 4-{[({4-[3-(4-Morpholinyl)propyl]phenyl}sulfonyl)amino]methyl}-N-(3-pyridinyl)benzamide] | c (“c” reflects a ratio of >100) | < 1000 |
| Cc1ccc(-c2ccc(S(=O)(=O)NCc3ccc(C(=O)Nc4cccnc4)cc3)cc2)cc1 [Example 53, 4-({[(4′-Methyl[1,1′-biphenyl]-4-yl)sulfonyl]amino}methyl)-N-(3-pyridinyl)benzamide] | a (“a” reflects a ratio of RCC4/RCC-VHL+ ranging from 1 to 10) | 1000 to 20000 |
| O=C(Nc1cccnc1)c1ccc(CNS(=O)(=O)c2cccc(-c3ccccc3)c2)cc1 [Example 26, 4-{[([1,1′-Biphenyl]-3-ylsulfonyl)amino]methyl}-N-(3-pyridinyl)benzamide] | b (“b” reflects from 10 to 100) | 1000 to 20000 |
| O=C(Nc1cccnc1)c1ccc(CNS(=O)(=O)c2ccc(CN3CCCCCC3)cc2)cc1 [Example 82, 4-[({[4-(1-Azepanylmethyl)phenyl]sulfonyl}amino)methyl]-N-(3-pyridinyl)benzamide] | c (“c” reflects a ratio of >100) | < 1000 |
| O=C(Nc1cccnc1)c1ccc(CNS(=O)(=O)c2ccc(I)cc2)cc1 [Example 94, 4-((4-Iodophenylsulfonamido)methyl)-N-(pyridin-3-yl)benzamide] | a (“a” reflects a ratio of RCC4/RCC-VHL+ ranging from 1 to 10) | 1000 to 20000 |
| CN(C)CC#Cc1ccc(S(=O)(=O)NCc2ccc(C(=O)Nc3cccnc3)cc2)cc1 [Example 137, 4-{[({4-[3-(Dimethylamino)-1-propynyl]phenyl}sulfonyl)amino]methyl}-N-(3-pyridinyl)benzamide] | b (“b” reflects from 10 to 100) | < 1000 |
| COc1ccc(S(=O)(=O)NCc2ccc(C(=O)Nc3cccnc3)cc2)cc1C(C)(C)C [Example 62, 4-((3-tert-Butyl-4-methoxyphenylsulfonamido)methyl)-N-(pyridin-3-yl)benzamide] | c (“c” reflects a ratio of >100) | < 1000 |
| NCCOCCOCCOCCOCCOCCOCCCc1ccc(S(=O)(=O)NCc2ccc(C(=O)Nc3cccnc3)cc2)cc1 [Example 130, 4-[({[4-(21-Amino-4,7,10,13,16,19-hexaoxahenicos-1-yl)phenyl]sulfonyl}amino)methyl]-N-(3-pyridinyl)benzamide] | a (“a” reflects a ratio of RCC4/RCC-VHL+ ranging from 1 to 10) | 1000 to 20000 |
| O=C(Nc1cccnc1)c1ccc(CNS(=O)(=O)c2ccc(-c3cnco3)cc2)cc1 [Example 60, 4-[({[4-(1,3-Oxazol-5-yl)phenyl]sulfonyl}amino)methyl]-N-(3-pyridinyl)benzamide] | b (“b” reflects from 10 to 100) | < 1000 |
| Cc1cccc(S(=O)(=O)NCc2ccc(C(=O)Nc3cccnc3)cc2)c1 [Example 19, 4-((3-Methylphenylsulfonamido)methyl)-N-(pyridin-3-yl)benzamide] | b (“b” reflects from 10 to 100) | < 1000 |
| CC(C)(C)c1ccc(S(=O)(=O)NCc2ccc(C(=O)Nc3cccnc3F)cc2)cc1 [Example 123, 4-({[(4-tert-Butylphenyl)sulfonyl]amino}methyl)-N-(2-fluoro-3-pyridinyl)benzamide] | a (“a” reflects a ratio of RCC4/RCC-VHL+ ranging from 1 to 10) | 1000 to 20000 |
| Nc1ccc(S(=O)(=O)NCc2ccc(C(=O)Nc3cccnc3)cc2)cc1 [Example 32, 4-((4-Aminophenylsulfonamido)methyl)-N-(pyridin-3-yl)benzamide] | b (“b” reflects from 10 to 100) | 1000 to 20000 |
| O=C(Nc1cccnc1)c1ccc(CNS(=O)(=O)c2cccc([N+](=O)[O-])c2)cc1 [Example 25, 4-((3-Nitrophenylsulfonamido)methyl)-N-(pyridin-3-yl)benzamide] | b (“b” reflects from 10 to 100) | 1000 to 20000 |
| O=C(Nc1cccnc1)c1ccc(CNS(=O)(=O)c2ccc(-c3cn(Cc4ccccc4)nn3)cc2)cc1 [Example 102, 4-[({[4-(1-benzyl-1H-1,2,3-triazol-4-yl)phenyl]sulfonyl}amino)methyl]-N-(3-pyridinyl)benzamide] | a (“a” reflects a ratio of RCC4/RCC-VHL+ ranging from 1 to 10) | > 20000 |
| O=C(Nc1cccnc1)c1ccc(CNS(=O)(=O)c2ccc(NCCCN3CCOCC3)cc2)cc1 [Example 131, 4-({[(4-{[3-(4-Morpholinyl)propyl]amino}phenyl)sulfonyl]amino}methyl)-N-(3-pyridinyl)benzamide] | b (“b” reflects from 10 to 100) | < 1000 |
| O=C(Nc1cccnc1)c1ccc(CNS(=O)(=O)c2cccc(-c3ncccn3)c2)cc1 [Example 27, 4-[({[3-(2-Pyrimidinyl)phenyl]sulfonyl}amino)methyl]-N-(3-pyridinyl)benzamide] | b (“b” reflects from 10 to 100) | < 1000 |
| O=C(Nc1cccnc1)c1ccc(CNS(=O)(=O)c2cccc(Cl)c2)cc1 [Example 21, 4-((3-Chlorophenylsulfonamido)methyl)-N-(pyridin-3-yl)benzamide] | b (“b” reflects from 10 to 100) | < 1000 |
| O=C(Nc1cccnc1)c1ccc(CNS(=O)(=O)c2ccc3c(c2)CCC3)cc1 [Example 74, 4-((2,3-Dihydro-1H-indene-5-sulfonamido)methyl)-N-(pyridin-3-yl)benzamide] | c (“c” reflects a ratio of >100) | < 1000 |
| CN1CCN(Cc2ccc(S(=O)(=O)NCc3ccc(C(=O)Nc4cccnc4)cc3)cc2)CC1 [Example 85, 4-{[({4-[(4-Methyl-1-piperazinyl)methyl]phenyl}sulfonyl)amino]methyl}-N-(3-pyridinyl)benzamide] | c (“c” reflects a ratio of >100) | < 1000 |
| CC(=O)c1ccc(S(=O)(=O)NCc2ccc(C(=O)Nc3cccnc3)cc2)cc1 [Example 48, 4-((4-Acetylphenylsulfonamido)methyl)-N-(pyridin-3-yl)benzamide] | b (“b” reflects from 10 to 100) | < 1000 |
| O=C(Nc1cccnc1)c1ccc(CNS(=O)(=O)c2ccc(OC(F)(F)F)cc2)cc1 [Example 46, N-(Pyridin-3-yl)-4-((4-(trifluoromethoxy)phenylsulfonamido)methyl)benzamide] | b (“b” reflects from 10 to 100) | 1000 to 20000 |
| Cc1ccc(S(=O)(=O)NCc2ccc(C(=O)Nc3cccnc3)cc2)cc1Cl [Example 69, 4-((3-Chloro-4-methylphenylsulfonamido)methyl)-N-(pyridin-3-yl)benzamide] | b (“b” reflects from 10 to 100) | < 1000 |
| Cc1ccc(S(=O)(=O)NCc2ccc(C(=O)Nc3cccnc3)cc2)cc1 [Example 36, 4-((4-Methylphenylsulfonamido)methyl)-N-(pyridin-3-yl)benzamide] | b (“b” reflects from 10 to 100) | 1000 to 20000 |
| N#Cc1cccc(S(=O)(=O)NCc2ccc(C(=O)Nc3cccnc3)cc2)c1 [Example 24, 4-((3-Cyanophenylsulfonamido)methyl)-N-(pyridin-3-yl)benzamide] | a (“a” reflects a ratio of RCC4/RCC-VHL+ ranging from 1 to 10) | 1000 to 20000 |
| O=C(Nc1cccnc1)c1ccc(CNS(=O)(=O)c2ccc(-c3ccc(F)cc3)cc2)cc1 [Example 55, 4-({[(4′-Fluoro[1,1′-biphenyl]-4-yl)sulfonyl]amino}methyl)-N-(3-pyridinyl)benzamide] | b (“b” reflects from 10 to 100) | < 1000 |
| O=C(Nc1cccnc1)c1ccc(CNS(=O)(=O)c2ccc(Cl)c(Cl)c2)cc1 [Example 70, 4-((3,4-Dichlorophenylsulfonamido)methyl)-N-(pyridin-3-yl)benzamide] | b (“b” reflects from 10 to 100) | 1000 to 20000 |
| O=C(Nc1cccnc1)c1ccc(CNS(=O)(=O)c2ccc(C#CCN3CCOCC3)cc2)cc1 [Example 136, 4-{[({4-[3-(4-Morpholinyl)-1-propynyl]phenyl}sulfonyl)amino]methyl}-N-(3-pyridinyl)benzamide] | b (“b” reflects from 10 to 100) | < 1000 |
| CC(C)(C)c1ccc(S(=O)(=O)NCc2ccc(C(=O)Nc3cnccc3Cl)cc2)cc1 [Example 112, 4-({[(4-tert-Butylphenyl)sulfonyl]amino}methyl)-N-(4-chloro-3-pyridinyl)benzamide] | a (“a” reflects a ratio of RCC4/RCC-VHL+ ranging from 1 to 10) | > 20000 |
| O=C(Nc1cccnc1)c1ccc(CNS(=O)(=O)c2ccc(-c3ccc(Cl)cc3)cc2)cc1 [Example 56, 4-({[(4′-Chloro[1,1′-biphenyl]-4-yl)sulfonyl]amino}methyl)-N-(3-pyridinyl)benzamide] | b (“b” reflects from 10 to 100) | 1000 to 20000 |
